Results reported in patent publication US10272120B2, “Synergistic composition comprising propolis and carnosic acid for use in the prevention and treatment of candidiasis” (priority 2015, dated 2019).
≈ marks a conversion by molar mass, not a printed value.

What was measured:
[1] = system: CAI-4; assay: MIC determination; assay type: cell-based; details: Candida albicans; strain CAI-4
[2] = system: parental strain SC5314; assay: MIC determination; assay type: cell-based; details: Candida albicans
[3] = system: C. albicans standard strain SC5314; assay: Viability assay in liquid medium and colony formation on solid YPD; assay type: cell-based, Candida albicans; details: various concentrations, exponential YPD liquid cultures
Text: FIG. 2. Viability assay in liquid medium of the C. albicans standard strain SC5314 to different concentrations of carnosic acid and propolis 1. As a positive control Amphotericin B was used. Due to the particular behaviour of the CAI-4 strain when carrying out MICs, it was decided to use the wild strain SC5314 ([…] parental), in order to validate the effect of the compounds of study on an international C. albicans reference strain. The assay followed the same procedure described in FIG. 1.
FIG. 3. Assay of macroscopic colony formation in solid YPD medium. The C. albicans standard strain SC5314 was used to the concentrations of carnosic acid and propolis 1 indicated. As a positive control Amphotericin B was used. For further details of methodology see FIG. 1.
Assays were carried out in liquid YPD medium (1% yeast extract, 2% peptone and 2% glucose) at 37° C. Initially the C. albicans strain CAI-4 was used, but as it presented growth problems during the calculation of the MIC, it was replaced by its parental (SC5314, wild type), widely used in the laboratory. […] The percentage of cell viability was determined by counting the number of viable cells in the solid YPD medium after incubation at 37° C. for 24-48 hours (FIG. 1). […]

[4] = system: SC5314 strain; assay: Cell morphology by optical microscopy; assay type: cell-based, Candida albicans
Text: FIG. 5. Optical micrographs (100×) where it can be seen how the treatment with increasing doses of carnosic acid caused visible alterations in the cellular morphology, resulting in cells with a more swollen and deformed aspect, with increased birefringence and the apparent loss of ability to transition dimorphically to mycelial structures (hyphae).
FIG. 6. Optical micrographs (40×) taken in order to provide better visual field with higher cell density, using the same cultures as in FIG. 5. The presence of swollen cells is very significant in the image, with a carnosic acid concentration of 100 μg/ml.

[5] = system: C. albicans strain CAI-4; assay: Viability assay in liquid YPD medium and colony formation on solid YPD; assay type: cell-based, Candida albicans; details: concentrations of 200 y 2000 μg/ml
Protocol: FIG. 1. Viability assay on liquid YPD medium (A) and colony formation on solid YPD medium (B) on C. albicans strain CAI-4 to different concentrations of carnosic acid, propolis 2 and 3. It started from a preinocolum culture incubated overnight at 28° C.; the next day refreshed in YPD medium to a D.O600 nm=0.3. The culture was allowed to grow to D.O600 nm=0.6 at 37° C., moment at which the compounds, object of the study, are added for one hour at the same temperature. Additionally, a positive control of antifungal activity with amphotericin B was included under the same conditions.
Assays were carried out in liquid YPD medium (1% yeast extract, 2% peptone and 2% glucose) at 37° C. Initially the C. albicans strain CAI-4 was used, but as it presented growth problems during the calculation of the MIC, it was replaced by its parental (SC5314, wild type), widely used in the laboratory. The procedure consisted of applying different concentrations of carnosic acid and propolis (one hour, unless other times are indicated) on exponential cultures of C. albicans grown in YPD. The percentage of cell viability was determined by counting the number of viable cells in the solid YPD medium after incubation at 37° C. for 24-48 hours (FIG. 1).

[6] = system: parental strain SC5314; assay: Inhibition kinetics / synergy assay, liquid medium and colony formation on plate; assay type: cell-based, Candida albicans; details: carnosic acid 50 μg/ml, propolis 3 200 μg/ml
Protocol: FIG. 8. (A) Measurement of the kinetic growth in the parental strain SC5314. With regard to previous assays, the following modifications were used: (i) Reduction of the concentration of carnosic acid to 50 μg/ml, maintaining that of the propolis 3 (PP) at (200 μg/ml), in order to better monitor its effect on cell viability. […] (B) Assay of colony formation on plate.
Then, in strain SC5314, as it is a reference lineage, new experiments simultaneously measuring the kinetics of inhibition of cell viability at sub-inhibitory concentrations of the carnosic acid (up to 50 μg/ml) and propolis 3 (200 μg/ml) were conducted together with the synergy assays between the two. The tested aliquots come from a single initial exponential culture and, therefore, the physiological state of the cells is identical.

[7] = system: C. albicans strain SC5314; assay: Yeast-hyphae dimorphic transition induced by human serum; assay type: cell-based, Candida albicans; details: YPD plus human serum at 10%, 37° C., different concentrations
Protocol: FIG. 9. Effect of the addition of carnosic acid on the percentage of yeast-hyphae dimorphic transition in C. albicans induced by human serum at 37° C. Exponential cultures of strain SC5314 were centrifuged and resuspended in fresh YPD medium preheated at 37° C. Identical samples were treated with carnosic acid at the indicated concentrations, using an untreated sample and a sample maintained at 28° C. as controls. The percentage of germ tubes emission (first stage of the formation of hyphae) was calculated by direct microscopic count with a hemocytometer.
FIG. 10. Micrographs illustrating the effect of carnosic acid on the dimorphism of C. albicans. In the control assay with the lowest concentration of carnosic acid, a high percentage of filamentation (grouped hyphae forming a mycelium) which decreased proportionally with increasing dose of the latter, was observed.
These assays are also complemented with the evaluation of the influence on the morphology (dimorphism) of C. albicans. In FIGS. 9 and 10, the effect of the carnosic acid on the dimorphic transition of the strain SC5314 of C. albicans was explored, given that the yeast-mycelium dimorphic transition is considered to be a factor of virulence in this opportunistic pathogen. To do this, an “overnight” culture was […] to a low optical density (0.1) and left to grow to 0.3 at 37° C. […]

[8] = system: C. albicans yeast (blastoconides) CAI-4; assay: Cell morphology by optical microscopy (Nomarsky); assay type: cell-based, Candida albicans
Protocol: FIG. 4. Inspection of the cell morphology by optical microscopy, using the interference contrast of “Nomarsky” on C. albicans yeast (blastoconides) CAI-4, treated with: propolis 3 (200 μg/ml), carnosic acid (100 μg/ml) and the combination of both compounds.
As an essential tool in understanding the effectiveness of these compounds on C. albicans cell viability, detailed studies on the effects of their administration on the cell morphology of this opportunistic pathogen, visualized by optical microscopy, were performed (FIGS. 4, 5 and 6).

Question: Which results are given for `CC(C)c1cc2c(c(O)c1O)[C@@]1(C(=O)O)CCCC(C)(C)[C@@H]1CC2` [carnosic acid]?
Answer: MIC [1]: 250 µg/mL (≈ 752 µM); MIC [2]: 250 µg/mL (≈ 752 µM); cell viability [3]: significant decrease in cell viability; cell morphology ([4]; 100 μg/ml of carnosic acid, Nomarsky contrast): growing swelling; cells seen in micrograph (40×) ([4]; 500 μg/ml): small number of cells; cell morphology ([4]; increasing concentration of carnosic acid): swelling and deformation of the yeast cells; antifungal effect [5]: strong antifungal effect; antifungal action considered individually [6]: strong antifungal action; growth on plate (FIG. 8) ([6]; combination read at one hour): growth is visible; filamentation (yeast-mycelium dimorphic transition) [7]: reduced the filamentation of C. albicans in a dose-dependent way; effect on cell morphology ([8]; more significant after five hours of treatment): apparent cellular reduction of size (volume); cell morphology (FIG. 4 legend) ([8]; propolis 3 200 μg/ml, carnosic acid 100 μg/ml, and the combination): significant reduction in cell size
